Test results as given in article PMC6933146 (Biotechnology Reports, 2019).

Experiments:
Type in all cases: biochemical, Alcaligenes faecalis
[1] = tested on: LAC1* (purified extracellular laccase); test: spectrophotometric oxidation; conditions: optimized conditions (optimum pH for ABTS 5.5), 50-500 μM substrate
[2] = tested on: LAC1* (purified extracellular laccase); test: spectrophotometric oxidation at […] nm, Lineweaver-Burk; conditions: pH 8.0, 80 °C, 50-500 μM substrate
[3] = tested on: LAC1* (purified extracellular laccase); test: spectrophotometric oxidation; conditions: optimized conditions (optimum pH for guaiacol 8), 50-500 μM substrate

Compound `CCn1c(=NN=c2sc3cc(S(=O)(=O)O)ccc3n2CC)sc2cc(S(=O)(=O)O)ccc21` [ABTS] has a Km [1] of 500 µM.
Compound `COc1cccc(OC)c1O` [2,6-DMP] has a Km [2] of 480 µM.
`COc1ccccc1O` [Guaiacol] was tested, and the Km [3] was 1000 µM.
